Patent US20130197043A1, “USE OF THE FETAL REPROGRAMMING OF A PPAR AGONIST” (SNU R&DB FOUNDATION, priority 2010, published 2013)

What was measured:
[1] = Pharmacokinetic experiment: passage of PPAR δ agonist through the placenta; format: in vivo, mice
Method: Pharmacokinetic experiment was conducted in order to confirm whether or not a PPAR δ agonist used in the present study, CMDD1111, passes through the placenta. CMDD 1111 was administered to 16-day pregnant mice at a concentration of 10 mg/kg, and then concentrations of the compound distributed in the bloods of mother animals and fetuses were analyzed for 24 hours. […] In the case of the fetuses, the blood concentration thereof tended to increase with the time, unlike the mother animals, and the maximum blood concentration thereof was 8.9 μM.

[2] = system: slow muscle fibers in the gastrocnemius muscle; assay: Muscle fiber type analysis (muscle colour, metachromatic staining, slow type MHC immunostaining); format: in vivo, mice
Source text: The slow muscle fiber has a lot of myoglobin, which is oxygen transfer protein, and thus appears redder than the fast muscle. When the skin of the fetus was removed and the muscle thereof was observed, it may be seen that administered mice group had redder muscle (FIGS. 7A and 7B). In order to confirm whether or not slow muscle fiber generation was increased due to the administration material (CMDD1111), hind legs thereof were resected and then frozen in OCT. Frozen muscle tissues were cut into […] sections by using a freezing cryotome, and mounted on slides, which was then subjected to metachromatic staining. The slow muscle fiber was stained darker blue than the fast muscle by the metachromatic staining. […] Muscle fibers may be discernable even by immunostaining using an isoform antibody of the myosin heavy chain (MHC). The present inventors conducted immunostaining using the slow type MHC in order to confirm whether or not slow muscle fibers were increased by the administration material (CMDD1111).

[3] = system: gene expression in muscle; assay: Gene expression analysis using real-time PCR in fetal-reprogrammed mice; format: in vivo
Method: A gene expression analysis experiment using the real-time PCR was conducted to further verify Miroarray analysis results. As for mouse group subjected to fetal reprogramming by administration of PPAR δ agonist (CMDD1111) during a muscular development period, there were increases in expression of core regulators for fatty acid oxidation and thermogenesis, such as carnitine palmitoyl transferase 1a (CPT-1a: 1.5 fold), uncoupling protein 3 (UCP3: 4.2 fold), acyl Co-A synthetase (ACSL: 1.4 fold), acyl Co-A dehydrogenase (ACAD10: 2.0 fold), and NDUFA12 (1.3 fold). In addition, there was a remarkable increase in expression of Adiponectin (ADIPOQ: 2.5 fold), which are commonly expressed in the slow muscle fiber and has been known to increase fatty acid oxidation to improve diabetes (FIG. 9).

primary cultured myotube = assay: Primary cell culture and real-time PCR gene expression analysis; format: cell-based, mouse; conditions: 300 nM, real-time PCR
Method: (§1) However, it has not been reported that the PPARs response element (PPRE) is present at promoters of these three genes. Therefore, the present inventors resected the muscle of the mouse with the removal of PPAR δ gene and conducted primary culture, in order to verify whether or not the increases in expressions of the above three genes are PPAR δ-dependent. After hind legs of a five-day-old fetus was resected, primary culture was conducted by the same method as developed by Rando (Rando et al, J. Cell. Biol., 1994, 125, 1275-1287). Myoblast, after being cultured, was transferred to a 6-well plate, and then differentiated into myotube while being treated with 300 nM of PPAR δ agonist (CMDD1111). The differentiated myotube was further treated with 300 nM of PPAR δ agonist (CMDD1111) for 2 days, and then total RNA was extracted by using a TRIzol reagent (Gibco). The extracted RNA was subjected to reverse transcription, to synthesize cDNA, which was then used as a template for real-time PCR analysis.

PPAR δ-deficient cells = assay: Primary cell culture and real-time PCR gene expression analysis, PPAR δ-deficient cells; format: cell-based, mouse; conditions: 300 nM
Method: as §1
As the result of real-time PCR analysis, expressions of PDK4 and CPT-1, known to be directly regulated by PPAR δ, were increased by 2.2 fold and 1.5 fold, respectively. However, there was no change in PPAR δ-deficient cells. This means that expressions of PDK4 and CPT-1 are PPAR δ-dependently regulated. […]

[4] = system: cytosolic calcium in differentiated muscle cells; assay: Analysis of cytosolic calcium (Flou4, confocal microscope); format: cell-based, mouse; conditions: 300 nM, 10 mM caffeine, calcium-free Kreb solution
Method: An experiment using a calcium-specific dye reagent, Flou4(Molecular probe), was conducted in order to confirm the effect on concentration of cytosolic calcium by the changes of RYR, SERCA, and PLN. The experiment method is as follows. The isolated muscle cells were grown on a culture plate with an attached glass slide through primary culture, and then differentiated into myotube while being treated with 300 nM of PPAR δ agonist (CMDD1111). Flou4 (final concentration: 5 μM) dye reagent was put into the differentiated muscle cells, which were then cultured for 30 minutes. The calcium-free Kreb solution was used as a culture medium to measure the change of cytosolic calcium, and treatment with 10 mM of caffeine was conducted to activate calcium channels. Intracellular calcium ion change was measured by using a confocal microscope. As the measurement result, the retention time of cytosolic calcium was increased by 43% (592±60 versus 847±77 sec) in the muscle cell to which PPAR δ agonist (CMDD1111) was added (FIG. 13). The reason was that expressions of RYR regulating calcium efflux and PLN suppressing calcium influx in the sarcoplasmic membrane were increased by PPAR δ. […]

[5] = fetal-reprogrammed mouse muscle

Structure (SMILES): Cc1cc(SC(Cc2ccccc2)c2sc(-c3ccc(C(F)(F)F)cc3)nc2C)ccc1OCC(=O)O (stereo not shown) [CMDD1111]
- passage through the placenta ([1]; 16-day pregnant mice, 10 mg/kg): passed through the placenta
- half-life ([1]; female, mouse, blood, oral, mother animals, 16-day pregnant mice, 10 mg/kg, read-out: half-time (t1/2) (converted)): 9 h
- Cmax ([1]; female, mouse, blood, oral, mother animals, 16-day pregnant mice, 10 mg/kg, read-out: maximum blood concentration (Cmax)): 38 µM
- Tmax ([1]; female, mouse, blood, oral, mother animals, 16-day pregnant mice, 10 mg/kg, read-out: time for reaching the maximum blood concentration (Tmax)): 1 h
- maximum blood concentration ([1]; fetuses, mother given 10 mg/kg, 24 hours): 8.9 µM
- muscle colour after skin removal ([2]; fetal reprogramming, maternal 10 mg/kg): redder muscle
- muscle fibers responsive to slow type MHC, immunostaining ([2]; gastrocnemius muscle): increased
- slow (dark blue) muscle fibers, metachromatic staining ([2]; gastrocnemius muscle): increasingly generated
- expression of Adiponectin (ADIPOQ) [3, 5]: 2.5 fold
- expression of CaMKII B [3, 5]: 4.5 fold
- expression of CaMKII D [3, 5]: 3.2 fold
- expression of HDAC4, decreased by [3, 5]: 0.6 fold
- expression of NDUFA12 [3, 5]: 1.3 fold
- expression of PGC-1α [3, 5]: 1.6 fold
- expression of acyl Co-A dehydrogenase (ACAD10) [3, 5]: 2.0 fold
- expression of acyl Co-A synthetase (ACSL) [3, 5]: 1.4 fold
- expression of carnitine palmitoyl transferase 1a (CPT-1a) [3, 5]: 1.5 fold
- expression of uncoupling protein 3 (UCP3) [3, 5]: 4.2 fold
- expression of ATP2A2 ([3]; versus control group): 2.2 fold
- expression of MYH6 ([3]; versus control group): 6.8 fold
- expression of My17 ([3]; versus control group): 4.8 fold
- expression of RYR2 ([3]; versus control group): 2.2 fold
- expression of RYR3 ([3]; versus control group): 3.6 fold
- expression of TNNI3 ([3]; versus control group): 5.8 fold
- expression of phospholamban ([3]; versus control group): 3.2 fold
- expression of ATP2A2 (primary cultured myotube): 4.3 fold
- expression of CPT-1 (primary cultured myotube): 1.5 fold
- expression of PDK4 (primary cultured myotube): 2.2 fold
- expression of PLN (primary cultured myotube): 1.7 fold
- expression of RYR (primary cultured myotube): 2.2 fold
- expression of TNNI3 (primary cultured myotube): 1.7 fold
- expressions of PDK4 and CPT-1 (PPAR δ-deficient cells): no change
- increase of retention time of cytosolic calcium [4]: 43%
- retention time of cytosolic calcium [4]: 847 ± 77 s
